Laboratory results taken from US8541457B2, “Aminothiazole derivatives as human stearoyl-CoA desaturase inhibitors” (Xenon Pharmaceuticals Inc., priority 2005, dated 2013).

SMILES | melting point
Cc1nc(NC(=O)c2cccc(C#N)c2)sc1C(=O)NCc1ccccc1 [Example 2.26, 2-(3-Cyanobenzoylamino)-4-methylthiazole-5-carboxylic Acid Benzylamide] | 207 to 208 °C
Cc1nc(NC(=O)c2cc(F)cc(F)c2)sc1C(=O)NCc1ccccc1 [Example 2.29, 2-(3,5-Difluorobenzoylamino)-4-methylthiazole-5-carboxylic Acid Benzylamide] | 84 to 86 °C
Cc1nc(NC(=O)c2ccccc2)sc1C(=O)NCc1ccc(F)cc1 [Example 7.6, 2-Benzoylamino-4-methylthiazole-5-carboxylic Acid 4-Fluorobenzylamide] | 206 to 208 °C
Cc1nc(NC(=O)CCc2ccccc2)sc1C(=O)NCc1ccccc1 [Example 2.40, 4-Methyl-2-(3-phenylpropionylamino)thiazole-5-carboxylic Acid Benzylamide] | 63 to 65 °C
Cc1nc(NC(=O)c2ccc(F)cc2Cl)sc1C(=O)NCc1ccccc1 [Example 2.20, 2-(2-Chloro-4-fluorobenzoylamino)-4-methylthiazole-5-carboxylic Acid Benzylamide] | 95 to 96 °C
Cc1nc(NC(=O)c2cccc(S(C)(=O)=O)c2)sc1C(=O)NCc1ccccc1 [Example 2.35, 2-(3-Methanesulfonylbenzoylamino)-4-methylthiazole-5-carboxylic Acid Benzylamide] | 111 to 113 °C
COc1cc(C(=O)Nc2nc(C)c(C(=O)NCc3ccccc3)s2)ccn1 [Example 13, N-Benzyl-2-(2-methoxyisonicotinamido)-4-methylthiazole-5-carboxamide] | 188 to 190 °C
Cc1nc(NC(=O)c2cccc(OC(F)(F)F)c2)sc1C(=O)NCc1ccccc1 [Example 2.28, 4-Methyl-2-(3-trifluoromethoxybenzoylamino)thiazole-5-carboxylic Acid Benzylamide] | 230 to 232 °C
Cc1nc(NC(=O)c2ccccc2)sc1C(=O)NNC(=O)c1ccccc1 [Example 9, N-(5-(2-Benzoylhydrazinecarbonyl)-4-methylthiazol-2-yl)benzamide] | 258 to 260 °C
Cc1nc(NC(=O)c2ccccc2)sc1C(=O)NCc1ccccc1Cl [Example 7.4, 2-Benzoylamino-4-methylthiazole-5-carboxylic acid 2-chlorobenzylamide] | 191 to 193 °C
Cc1nc(NC(=O)c2cccc(Cl)c2)sc1C(=O)NCc1ccccc1 [Example 2.19, 2-(3-Chlorobenzoylamino)-4-methylthiazole-5-carboxylic Acid Benzylamide] | 178 to 179 °C
CCC(NC(=O)c1sc(NC(=O)c2ccccc2)nc1C)c1ccccc1 (centres unmarked) [Example 3, 2-Benzoylamino-4-methylthiazole-5-carboxylic Acid (1-Phenylpropyl)amide] | 87 to 89 °C
Cc1nc(NC(=O)Nc2ccc(Cl)cc2)sc1C(=O)NCc1ccccc1 [Example 4.2, 2-[3-(4-Chlorophenyl)ureido]-4-methylthiazole-5-carboxylic Acid Benzylamide] | > 300 °C
Cc1nc(NC(=O)c2ccccc2S(C)(=O)=O)sc1C(=O)NCc1ccccc1 [Example 2.36, 2-(2-Methanesulfonylbenzoylamino)-4-methylthiazole-5-carboxylic Acid Benzylamide] | 239 to 242 °C
Cc1nc(NC(=O)Nc2ccccc2)sc1C(=O)NCc1ccccc1 [Example 4, 4-Methyl-2-(3-phenylureido)thiazole-5-carboxylic Acid Benzylamide] | > 300 °C
CCC(=O)Nc1nc(C)c(C(=O)NCc2ccccc2)s1 [Example 2.1, 4-Methyl-2-propionylaminothiazole-5-carboxylic Acid Benzylamide] | 175 to 176 °C
Cc1nc(NC(=O)c2cccc3ccccc23)sc1C(=O)NCc1ccccc1 [Example 2.23, 4-Methyl-2-[(naphthalene-1-carbonyl)amino]thiazole-5-carboxylic Acid Benzylamide] | 99 to 101 °C
